Source: patent US20020090352A1, “Compositions and methods for use in modulating immune system function” (priority 2000, published 2002)
Entries after “also recorded” stand apart in the source; their conditions may differ. Marks after values point to notes of the source that are not given here.

Legend:
NF-κB complexes = assay: Electrophoretic mobility shift assay of nuclear NF-κB complexes in immature LC; assay type: cell-based, human; conditions: retinoid 1 μM 6 h, then TNFα 50 ng/ml 30 min; result in words
RARα-RXRα heterodimer = target: T1, RARα-RXRα heterodimer (Homo sapiens, UniProt P10276+P19793); conditions: retinoid activity, transient transfection; cited from earlier work; also: key: '+' = agonist; '(+)' = weak agonist; '−' = antagonist; '0' = absence of agonist and antagonist activities
T1 construct: expressed in transfected cells
T1 sequence (P10276 1-462): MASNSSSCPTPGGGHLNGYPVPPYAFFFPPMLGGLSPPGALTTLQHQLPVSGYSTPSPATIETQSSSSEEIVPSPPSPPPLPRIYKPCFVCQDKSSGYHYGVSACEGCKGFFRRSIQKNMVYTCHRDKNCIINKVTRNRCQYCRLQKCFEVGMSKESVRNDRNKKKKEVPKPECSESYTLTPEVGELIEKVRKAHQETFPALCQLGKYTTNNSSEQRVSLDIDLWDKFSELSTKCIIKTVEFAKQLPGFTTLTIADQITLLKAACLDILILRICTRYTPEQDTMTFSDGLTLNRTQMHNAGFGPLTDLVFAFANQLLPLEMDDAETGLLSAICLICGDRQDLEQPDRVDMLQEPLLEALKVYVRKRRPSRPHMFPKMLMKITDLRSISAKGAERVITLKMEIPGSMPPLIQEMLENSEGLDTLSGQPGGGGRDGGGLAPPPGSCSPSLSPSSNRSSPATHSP
T1 sequence (P19793 1-462): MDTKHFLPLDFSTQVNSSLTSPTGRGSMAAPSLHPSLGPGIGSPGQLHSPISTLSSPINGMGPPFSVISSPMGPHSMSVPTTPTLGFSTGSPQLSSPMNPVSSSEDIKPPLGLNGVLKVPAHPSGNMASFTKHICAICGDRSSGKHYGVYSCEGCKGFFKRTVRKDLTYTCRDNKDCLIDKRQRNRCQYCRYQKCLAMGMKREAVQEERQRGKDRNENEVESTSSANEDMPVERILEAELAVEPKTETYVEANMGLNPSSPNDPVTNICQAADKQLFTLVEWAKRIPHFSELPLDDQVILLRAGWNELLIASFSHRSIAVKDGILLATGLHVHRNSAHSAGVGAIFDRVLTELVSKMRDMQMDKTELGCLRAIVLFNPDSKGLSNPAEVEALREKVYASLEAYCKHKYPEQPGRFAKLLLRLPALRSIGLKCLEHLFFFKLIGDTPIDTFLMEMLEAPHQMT

RXR AF2 = conditions: retinoid activity, reporter cells; cited from earlier work
RARα AF2 = target: T2, RARα AF2 (Homo sapiens, UniProt P10276); conditions: retinoid activity, reporter cells; cited from earlier work; also: key: '+' = agonist; '(+)' = weak agonist; '−' = antagonist; '0' = absence of agonist and antagonist activities
T2 construct: expressed in transfected cells
T2 sequence (P10276 183-417 limits assumed): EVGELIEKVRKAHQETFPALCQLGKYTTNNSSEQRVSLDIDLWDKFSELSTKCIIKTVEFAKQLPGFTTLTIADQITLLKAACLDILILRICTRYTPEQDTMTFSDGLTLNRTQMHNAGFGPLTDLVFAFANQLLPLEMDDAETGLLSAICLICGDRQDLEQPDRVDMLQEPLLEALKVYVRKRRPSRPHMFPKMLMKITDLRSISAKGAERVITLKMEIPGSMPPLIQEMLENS

RXRα homodimer [(RXR)2] = target: T3, RXRα homodimer [(RXR)2] (Homo sapiens, UniProt P19793); conditions: retinoid activity, transient transfection; cited from earlier work; also: key: '+' = agonist; '(+)' = weak agonist; '−' = antagonist; '0' = absence of agonist and antagonist activities
T3 construct: expressed in transfected cells
T3 sequence (P19793 1-462): T1 sequence (P19793 1-462)

[1] = system: immature LC (Langerhans cells); assay: Apoptosis of immature LC, flow cytometry of PI stained nuclei (sub 2N particles) / annexin V; assay type: cell-based, human; conditions: for induction of apoptosis / death of immature LC by the substance on its own: no TNFα
RARγ AF2 = target: T4, RARγ AF2 (Homo sapiens, UniProt P13631); conditions: retinoid activity, reporter cells; cited from earlier work; also: key: '+' = agonist; '(+)' = weak agonist; '−' = antagonist; '0' = absence of agonist and antagonist activities
T4 construct: expressed in transfected cells
T4 sequence (P13631 185-419 limits assumed): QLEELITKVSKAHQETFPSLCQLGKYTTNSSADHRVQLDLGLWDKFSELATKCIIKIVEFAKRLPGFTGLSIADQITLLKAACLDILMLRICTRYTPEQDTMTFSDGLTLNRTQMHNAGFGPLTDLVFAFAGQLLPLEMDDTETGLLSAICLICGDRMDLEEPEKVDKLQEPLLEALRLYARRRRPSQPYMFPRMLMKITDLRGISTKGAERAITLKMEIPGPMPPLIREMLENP

[2] = system: immature LC (Langerhans cells); assay: Activation of immature LC: HLA-DR and CD86 expression by flow cytometry; assay type: cell-based, human; design: class II or CD86 upregulation on immature LC: dose or concentration left out as unconfirmed; conditions: for activation of immature LC (class II / CD86, DRhi-CD86hi) in the presence of TNFα: TNFα 1-10 ng/ml; for class II or CD86 upregulation on immature LC: in the absence or at low concentrations of TNFα
Experimental: Immature LC were cultured with retinol or vehicle and/or TNFα for 40 h. Cells were washed and incubated with HLA-DR-FITC and CD86-PE or isotype controls for 15 min at 4° C. 10^4 events were then analyzed with a FACScalibur (Becton Dickinson) using CellQuest software (Becton Dickinson). % are given for DRhi CD86hi cells gated as indicated. Data are representative of three experiments on different donors.
FIG. 3A: Day 6 immature LC were cultured for 40 h with TNFα and/or retinoids or vehicle as indicated. Cells were washed and stained with HLA-DR-FITC and CD86-PE or isotype controls for 15 min at 4° C. 10^4 events were then analyzed with a FACScalibur (Becton Dickinson) using CellQuest software (Becton Dickinson). Data are given for DRhi/CD86 hi cells gated as indicated, and are representative of 10 experiments on different donors.
Percentages of DRhi/CD86 hi cells are represented and results are expressed as the mean±SD of at last three experiments on different donors.
Flow Cytometry Analysis. 1×10^5 cells were incubated in 96-well plates (Becton Dickinson Labware, Franklin Lakes, N.J.) for 15 min at 4 ° C. in PBS, 2% human AB serum, and 0.01 M NaN3, with FITC-conjugated anti-DR (Immunotech, Marseille, France) and PE-conjugated CD86 (Pharmingen, San Diego, Calif.) at the appropriate concentration, or with control isotype-matched irrelevant mAbs at the same concentration. After washing, 10^4 events were analyzed with a FACScalibur (Becton Dickinson Immunocytometry Systems, Mountain View, Calif.) using CellQuest software.

RARβ AF2 = target: T5, RARβ AF2 (Homo sapiens, UniProt P10826); conditions: retinoid activity, reporter cells; cited from earlier work
T5 construct: expressed in transfected cells
T5 sequence (P10826 183-417 limits assumed): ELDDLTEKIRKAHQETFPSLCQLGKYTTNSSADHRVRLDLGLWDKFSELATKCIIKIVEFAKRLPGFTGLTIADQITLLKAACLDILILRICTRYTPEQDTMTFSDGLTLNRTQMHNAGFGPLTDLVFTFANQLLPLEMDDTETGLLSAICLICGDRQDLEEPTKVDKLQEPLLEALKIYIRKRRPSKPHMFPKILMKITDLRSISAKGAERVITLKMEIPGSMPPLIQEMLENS

T-cells stimulated by LC = assay type: cell-based, human
in vitro = conditions: human
[3] = 1 nM, two days in culture, mean ± SD
[4] = 10 nM, two days in culture, mean ± SD
[5] = 100 nM, two days in culture, mean ± SD
[6] = 1 μM, two days in culture, mean ± SD
[7] = Table 3C, retinoid 1 μM in medium, no inhibitor

Row | SMILES | nuclear translocation / DNA-binding activity of NF-κB complexes with TNFα (NF-κB complexes) | RARα-RXR DR5 (RARα-RXRα heterodimer) | RXR AF2 (RXR AF2) | RARα AF2 (RARα AF2) | (RXR)2 AF2 (RXRα homodimer [(RXR)2]) | percentage of apoptotic (<2N) particles [1, 3] | percentage of apoptotic (<2N) particles [1, 4] | percentage of apoptotic (<2N) particles ([1]; 100 nM SR11237 + 1 nM ligand) | percentage of apoptotic (<2N) particles ([1]; 100 nM SR11237 + 10 nM ligand) | percentage of apoptotic (<2N) particles ([1]; 100 nM SR11237 + 100 nM ligand) | percentage of apoptotic (<2N) particles ([1]; 100 nM SR11237 + 1 μM ligand) | percentage of apoptotic (<2N) particles [1, 5] | percentage of apoptotic (<2N) particles [1, 6] | percentage of apoptotic (<2N) particles [1, 7] [%] | induction of apoptosis / death of immature LC by the substance on its own ([1]; result in words) | RARγ AF2 (RARγ AF2) | activation of immature LC (class II / CD86, DRhi-CD86hi) in the presence of TNFα ([2]; result in words) | RARβ AF2 (RARβ AF2) | enhancement of antigen presentation to antigen-specific T-cells in synergy with TNFα (T-cells stimulated by LC) | class II or CD86 upregulation on immature LC [2] | further results
1 | CC1(C)C(=O)C(C)(C)c2cc(C(=O)Nc3ccc(C(=O)O)cc3)ccc21 [Compound I, 4-[[(2,3-Dihydro-1,1,3,3-tetramethyl-2-oxo-1H-inden-5-yl)carbonyl]amino]benzoic acid] | synergize with TNFα | + | 0 | + | 0 | ≦5% | ≦5% | 6 ± 3% | 25 ± 10^(a) % | 32 ± 7% | 47 ± 10% | 27 ± 9% | 37 ± 7% | 38 ± 8 | apoptosis was induced | 0 | upregulate | 0 |  |  | percentage of apoptotic (<2N) particles ([1]; 50 nM, two days in culture, mean ± SD): 18 ± 3^(b) %; percentage of apoptotic (<2N) particles ([1]; Table 3C, Compound I 100 nM + SR11237 100 nM in medium, no inhibitor): 38 ± 5%
2 | CC1(C)CC=C(c2cnc3ccccc3c2)c2cc(C(=O)Nc3ccc(C(=O)O)cc3)ccc21 [Compound II, 4-[[[5,6-Dihydro-5,5-dimethyl-8-(3-quinolinyl)-2-naphthalenyl]carbonyl]amino]benzoic acid] |  | − | 0 | −^(a)(b) | 0 | ≦5% | ≦5% | ≦5% | ≦5% | ≦5% | ≦5% | ≦5% | ≦5% |  | did not induce | 0 |  | 0 | synergized with the RXR agonist (SR11237) |  | inhibition of retinoid-induced apoptosis / cell death of immature LC ([1]; result in words): inhibited retinoid-induced apoptosis; inhibition of retinoid-induced apoptosis / cell death of immature LC ([1]; result in words, listed as Compound H): inhibited; synergy with the RXR agonist SR11237 for TNFα-induced LC activation ([2]; result in words): synergized with the RXR agonist (SR11237)
3 | CC1=C(/C=C/C(C)=C/C=C/C(C)=C/CO)C(C)(C)CCC1 [Rol, retinol] |  |  |  |  |  | ≦5^(a) % | ≦5% |  |  |  |  | ≦5% | 17±8% | 17 ± 8 | increased |  |  |  |  | did not significantly induce | allogeneic T-lymphocyte proliferation (MLR) (T-cells stimulated by LC): increase alloreactive proliferative response; cytotoxicity at 2 days, 1 μM (in vitro): 20%; cytotoxicity at 3 days, 1 μM (in vitro): 40%; minimum effective dose for significant LC activation [2]: 1 µM; synergy with IL-1β to activate LC ([2]; IL-1β 1-10 ng/ml, result in words): synergized with IL-1β; activation of immature LC (class II / CD86, DRhi-CD86hi) in the presence of TNFα ([2]; result in words, listed as Retinol): synergize with TNFα; also recorded: upregulate; activation of immature LC (class II / CD86, DRhi-CD86hi) in the presence of TNFα ([2]; result in words, listed as retinol): synergized with TNFα
4 | CC1(C)CCC(C)(C)c2cc(C3(c4ccc(C(=O)O)cc4)OCCO3)ccc21 [SR11237, 4-[2-(5,6,7,8-tetrahydro-5,5,8,8-tetramethyl-2-naphthalenyl)-1,3-dioxolan-2-yl]benzoic acid, reference compound] | synergize with TNFα | 0 | + | 0 | + | ≦5% | ≦5% |  |  |  |  | ≦5% | ≦5% |  | neither SR11237 (Table 3) nor BMS749 exhibited an apoptotic effect | 0 | also synergized with TNFα; also recorded: upregulate | 0 | synergized with TNFα |  | induction of apoptosis / death of immature LC by the substance on its own ([1]; result in words, listed as SR1 1237): had no effects on its own; synergy with the pan-RXR agonist SR11237 to induce LC death ([1]; result in words): asynergistic effect on LC death induced by the selective RARα agonist
5 | CC1=C(/C=C/C(C)=C/C=C/C(C)=C/C(=O)O)C(C)(C)CCC1 [tRA, all-trans retinoic acid, reference compound] | synergize with TNFα |  | 0^(a) | +^(a) |  | ≦5% | ≦5% |  |  |  |  | 14 ± 6^(b) % | 36 ± 10% | 38 ± 10 | induced a similar dose- and time-dependent increase in death | + | synergize with TNFα; also recorded: upregulate | + |  | did not significantly induce | 
